# Patent publication US20220088016A1, “CANCER TREATMENT USING MULTI-TARGETED KINASE INHIBITOR IN COMBINATION OF PROTEIN KINASE BIOMARKERS” (ZHEJIANG CROWNMAB BIOTECH CO. LTD., priority 2019, published 2022)
# Legend:
# [1] = biological target: DYRK2 (Homo sapiens, UniProt Q92630); assay: Kinase profiling; format: binding; conditions: read-out: % Ctrl @ 1000 nM
# [2] = biological target: T1, MLK1 (Homo sapiens, UniProt P80192); assay: Kinase profiling; format: binding; conditions: read-out: % Ctrl @ 1000 nM
# T1 construct: T7 phage fusion (stated for most kinases of the panel only); made in house; host or cells: T7 phage in E. coli (BL21-derived) or HEK-293 cells
# [3] = biological target: RIOK3 (Homo sapiens, UniProt O14730); assay: Kinase profiling; format: binding; conditions: read-out: % Ctrl @ 1000 nM
# [4] = biological target: CSK (Homo sapiens, UniProt P41240); assay: Kinase profiling; format: binding; conditions: read-out: % Ctrl @ 1000 nM
# [5] = biological target: DCAMKL1 (Homo sapiens, UniProt O15075); assay: Kinase profiling; format: binding; conditions: read-out: % Ctrl @ 1000 nM
# [6] = biological target: PIK3CA (C420R) (Homo sapiens, UniProt P42336, C420R); assay: Kinase profiling; format: binding; conditions: read-out: % Ctrl @ 1000 nM
# [7] = biological target: BUB1 (Homo sapiens, UniProt O43683); assay: Kinase profiling; format: binding; conditions: read-out: % Ctrl @ 1000 nM
# [8] = biological target: DAPK2 (Homo sapiens, UniProt Q9UIK4); assay: Kinase profiling; format: binding; conditions: read-out: % Ctrl @ 1000 nM
# [9] = test system: CD3 (T cell surface marker); assay: CD3 IHC test in MC-38 tumor; format: in vivo, mouse; conditions: MC-38 tumors; vs vehicle group
# Protocol: MC38 tumor tissues were collected at the end of the in vivo efficacy trial. The tumor tissue was then embedded in paraffin. The expression of CD3/CD4/CD8/F4-80 were tested by immunohistochemistry stain.
# [10] = biological target: PIM1 (Homo sapiens, UniProt P11309); assay: Kinase profiling; format: binding; conditions: read-out: % Ctrl @ 1000 nM
# [11] = biological target: KIT (D816V) (Homo sapiens, UniProt P10721, D816V); assay: Kinase profiling; format: binding; conditions: read-out: % Ctrl @ 1000 nM
# [12] = biological target: TGFBR2 (Homo sapiens, UniProt P37173); assay: Kinase profiling; format: binding; conditions: read-out: % Ctrl @ 1000 nM
# [13] = biological target: PAK3 (Homo sapiens, UniProt O75914); assay: Kinase profiling; format: binding; conditions: read-out: % Ctrl @ 1000 nM
# [14] = biological target: MAP4K4 (Homo sapiens, UniProt O95819); assay: Kinase profiling; format: binding; conditions: read-out: % Ctrl @ 1000 nM
# [15] = biological target: VEGFR2 (Homo sapiens, UniProt P35968); assay: Kinase profiling; format: binding; conditions: read-out: % Ctrl @ 1000 nM
# [16] = biological target: PRP4 (Homo sapiens, UniProt Q13523); assay: Kinase profiling; format: binding; conditions: read-out: % Ctrl @ 1000 nM
# [17] = biological target: DCAMKL2 (Homo sapiens, UniProt Q8N568); assay: Kinase profiling; format: binding; conditions: read-out: % Ctrl @ 1000 nM
# [18] = biological target: ACVR2A (Homo sapiens, UniProt P27037); assay: Kinase profiling; format: binding; conditions: read-out: % Ctrl @ 1000 nM
# [19] = biological target: ABL1 (T315I)-nonphosphorylated (Homo sapiens, UniProt P00519, T315I); assay: Kinase profiling; format: binding; conditions: read-out: % Ctrl @ 1000 nM
# [20] = biological target: TRPM6 (Homo sapiens, UniProt Q9BX84); assay: Kinase profiling; format: binding; conditions: read-out: % Ctrl @ 1000 nM
# [21] = biological target: RIPK1 (Homo sapiens, UniProt Q13546); assay: Kinase profiling; format: binding; conditions: read-out: % Ctrl @ 1000 nM
# [22] = biological target: FES (Homo sapiens, UniProt P07332); assay: Kinase profiling; format: binding; conditions: read-out: % Ctrl @ 1000 nM
# [23] = biological target: ABL1-nonphosphorylated (Homo sapiens, UniProt P00519); assay: Kinase profiling; format: binding; conditions: read-out: % Ctrl @ 1000 nM
# [24] = biological target: CHEK1 (Homo sapiens, UniProt O14757); assay: Kinase profiling; format: binding; conditions: read-out: % Ctrl @ 1000 nM
# [25] = biological target: TAK1 (Homo sapiens, UniProt O43318); assay: Kinase profiling; format: binding; conditions: read-out: % Ctrl @ 1000 nM
# [26] = biological target: PDGFRB (Homo sapiens, UniProt P09619); assay: Kinase profiling; format: binding; conditions: read-out: % Ctrl @ 1000 nM
# [27] = biological target: CAMK2A (Homo sapiens, UniProt Q9UQM7); assay: Kinase profiling; format: binding; conditions: read-out: % Ctrl @ 1000 nM
# [28] = biological target: CSNK1E (Homo sapiens, UniProt P49674); assay: Kinase profiling; format: binding; conditions: read-out: % Ctrl @ 1000 nM
# [29] = biological target: GCN2 (Kin.Dom.2, S808G) (Homo sapiens, UniProt Q9P2K8, S808G); assay: Kinase profiling; format: binding; conditions: read-out: % Ctrl @ 1000 nM
# [30] = biological target: AMPK-alpha2 (Homo sapiens, UniProt P54646); assay: Kinase profiling; format: binding; conditions: read-out: % Ctrl @ 1000 nM
# [31] = biological target: RSK4 (Kin.Dom.1-N-terminal) (Homo sapiens, UniProt Q9UK32); assay: Kinase profiling; format: binding; conditions: read-out: % Ctrl @ 1000 nM
# [32] = biological target: IKK-alpha (Homo sapiens, UniProt O15111); assay: Kinase profiling; format: binding; conditions: read-out: % Ctrl @ 1000 nM
# [33] = biological target: ROCK2 (Homo sapiens, UniProt O75116); assay: Kinase profiling; format: binding; conditions: read-out: % Ctrl @ 1000 nM
# [34] = biological target: T2, MEK1 (Homo sapiens, UniProt Q02750); assay: Kinase profiling; format: binding; conditions: read-out: % Ctrl @ 1000 nM
# T2 construct: T7 phage fusion (stated for most kinases of the panel only); made in house; host or cells: T7 phage in E. coli (BL21-derived) or HEK-293 cells
# [35] = biological target: T3, MST4 (Homo sapiens, UniProt Q9P289); assay: Kinase profiling; format: binding; conditions: read-out: % Ctrl @ 1000 nM
# T3 construct: T7 phage fusion (said for most assays); made in house
# [36] = biological target: T4, NEK5 (Homo sapiens, UniProt Q6P3R8); assay: Kinase profiling; format: binding; conditions: read-out: % Ctrl @ 1000 nM
# T4 construct: T7 phage fusion (said for most assays); made in house
# [37] = biological target: ACVRL1 (Homo sapiens, UniProt P37023); assay: Kinase profiling; format: binding; conditions: read-out: % Ctrl @ 1000 nM
# [38] = biological target: T5, MST2 (Homo sapiens, UniProt Q13188); assay: Kinase profiling; format: binding; conditions: read-out: % Ctrl @ 1000 nM
# T5 construct: T7 phage fusion (stated for most kinases of the panel only); made in house; host or cells: T7 phage in E. coli (BL21-derived) or HEK-293 cells
# T5 sequence (Q13188 whole entry, the tested form may be a part): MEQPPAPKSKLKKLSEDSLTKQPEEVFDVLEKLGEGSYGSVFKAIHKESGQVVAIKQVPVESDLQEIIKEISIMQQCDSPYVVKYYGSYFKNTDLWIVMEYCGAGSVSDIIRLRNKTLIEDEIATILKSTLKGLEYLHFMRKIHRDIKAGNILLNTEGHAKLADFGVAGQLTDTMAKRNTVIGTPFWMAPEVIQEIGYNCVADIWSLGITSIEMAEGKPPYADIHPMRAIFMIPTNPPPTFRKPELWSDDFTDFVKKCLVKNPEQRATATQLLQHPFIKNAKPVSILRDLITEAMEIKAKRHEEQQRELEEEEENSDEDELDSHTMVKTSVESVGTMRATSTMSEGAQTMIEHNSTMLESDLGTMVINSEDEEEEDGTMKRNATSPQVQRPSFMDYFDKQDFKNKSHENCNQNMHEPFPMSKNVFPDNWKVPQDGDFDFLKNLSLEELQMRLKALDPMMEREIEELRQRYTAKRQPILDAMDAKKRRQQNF
# Chain of DCAMKL2 (Q8N568 whole entry): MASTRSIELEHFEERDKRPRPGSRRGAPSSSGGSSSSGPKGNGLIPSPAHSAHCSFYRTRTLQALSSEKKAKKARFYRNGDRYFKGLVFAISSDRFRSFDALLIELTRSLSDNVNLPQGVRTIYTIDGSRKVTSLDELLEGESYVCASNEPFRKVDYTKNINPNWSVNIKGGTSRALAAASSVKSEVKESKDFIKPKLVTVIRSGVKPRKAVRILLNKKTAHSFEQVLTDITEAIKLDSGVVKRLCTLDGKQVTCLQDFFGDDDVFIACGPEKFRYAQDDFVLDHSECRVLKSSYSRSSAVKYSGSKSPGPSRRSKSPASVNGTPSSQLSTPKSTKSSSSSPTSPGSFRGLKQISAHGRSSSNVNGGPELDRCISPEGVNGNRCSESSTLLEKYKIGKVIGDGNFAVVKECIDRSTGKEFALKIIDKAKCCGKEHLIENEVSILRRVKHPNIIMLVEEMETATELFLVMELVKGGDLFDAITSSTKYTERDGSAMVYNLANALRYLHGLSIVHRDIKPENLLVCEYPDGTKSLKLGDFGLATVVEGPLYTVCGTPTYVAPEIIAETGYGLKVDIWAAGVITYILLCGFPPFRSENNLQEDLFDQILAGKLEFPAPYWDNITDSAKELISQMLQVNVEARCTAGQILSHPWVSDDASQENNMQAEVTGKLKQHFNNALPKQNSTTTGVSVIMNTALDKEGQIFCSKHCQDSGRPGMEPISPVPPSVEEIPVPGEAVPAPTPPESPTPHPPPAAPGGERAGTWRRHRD
# Chain of BUB1 (O43683 whole entry): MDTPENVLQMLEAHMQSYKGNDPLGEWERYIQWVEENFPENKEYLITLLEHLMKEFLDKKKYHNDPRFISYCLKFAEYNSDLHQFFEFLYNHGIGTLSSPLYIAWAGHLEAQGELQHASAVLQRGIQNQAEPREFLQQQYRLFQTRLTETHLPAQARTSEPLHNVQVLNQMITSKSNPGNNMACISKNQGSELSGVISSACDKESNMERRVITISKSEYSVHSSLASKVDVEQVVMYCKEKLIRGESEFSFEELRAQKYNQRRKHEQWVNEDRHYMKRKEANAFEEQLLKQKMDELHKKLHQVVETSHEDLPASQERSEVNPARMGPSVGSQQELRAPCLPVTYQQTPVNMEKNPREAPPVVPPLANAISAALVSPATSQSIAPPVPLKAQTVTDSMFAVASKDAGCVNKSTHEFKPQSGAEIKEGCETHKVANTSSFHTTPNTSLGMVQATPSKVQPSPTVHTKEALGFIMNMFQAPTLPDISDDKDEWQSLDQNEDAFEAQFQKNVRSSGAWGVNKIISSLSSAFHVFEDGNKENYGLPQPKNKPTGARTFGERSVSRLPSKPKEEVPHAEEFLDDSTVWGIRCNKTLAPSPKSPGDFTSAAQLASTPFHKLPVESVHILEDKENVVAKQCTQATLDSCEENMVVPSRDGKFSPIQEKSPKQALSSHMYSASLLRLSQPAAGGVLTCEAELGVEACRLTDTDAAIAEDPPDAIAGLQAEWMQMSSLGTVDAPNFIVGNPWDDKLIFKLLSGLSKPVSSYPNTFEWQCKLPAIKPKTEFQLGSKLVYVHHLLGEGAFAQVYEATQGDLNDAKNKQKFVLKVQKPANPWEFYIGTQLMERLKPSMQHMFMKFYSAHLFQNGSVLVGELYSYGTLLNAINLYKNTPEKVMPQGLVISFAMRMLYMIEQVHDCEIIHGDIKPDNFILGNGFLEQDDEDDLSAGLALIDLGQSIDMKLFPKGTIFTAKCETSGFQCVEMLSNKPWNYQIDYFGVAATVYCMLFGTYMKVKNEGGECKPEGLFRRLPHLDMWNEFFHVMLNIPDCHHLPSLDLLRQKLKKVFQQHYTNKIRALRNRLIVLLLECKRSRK
# Chain of ACVRL1 (P37023 22-503): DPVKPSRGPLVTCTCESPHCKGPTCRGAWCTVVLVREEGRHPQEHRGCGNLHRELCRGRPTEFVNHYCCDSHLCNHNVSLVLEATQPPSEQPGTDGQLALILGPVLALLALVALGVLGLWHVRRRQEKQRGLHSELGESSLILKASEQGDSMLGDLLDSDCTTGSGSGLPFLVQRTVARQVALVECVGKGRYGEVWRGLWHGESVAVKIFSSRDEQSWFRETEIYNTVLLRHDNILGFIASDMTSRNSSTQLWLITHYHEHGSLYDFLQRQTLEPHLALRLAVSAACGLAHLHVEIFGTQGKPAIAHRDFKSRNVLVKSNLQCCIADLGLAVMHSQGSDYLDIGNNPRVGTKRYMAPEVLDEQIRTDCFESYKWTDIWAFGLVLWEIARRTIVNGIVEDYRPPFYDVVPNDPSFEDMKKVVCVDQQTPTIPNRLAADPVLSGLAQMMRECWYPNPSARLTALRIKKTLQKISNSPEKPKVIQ
# Chain of RIOK3 (O14730 whole entry): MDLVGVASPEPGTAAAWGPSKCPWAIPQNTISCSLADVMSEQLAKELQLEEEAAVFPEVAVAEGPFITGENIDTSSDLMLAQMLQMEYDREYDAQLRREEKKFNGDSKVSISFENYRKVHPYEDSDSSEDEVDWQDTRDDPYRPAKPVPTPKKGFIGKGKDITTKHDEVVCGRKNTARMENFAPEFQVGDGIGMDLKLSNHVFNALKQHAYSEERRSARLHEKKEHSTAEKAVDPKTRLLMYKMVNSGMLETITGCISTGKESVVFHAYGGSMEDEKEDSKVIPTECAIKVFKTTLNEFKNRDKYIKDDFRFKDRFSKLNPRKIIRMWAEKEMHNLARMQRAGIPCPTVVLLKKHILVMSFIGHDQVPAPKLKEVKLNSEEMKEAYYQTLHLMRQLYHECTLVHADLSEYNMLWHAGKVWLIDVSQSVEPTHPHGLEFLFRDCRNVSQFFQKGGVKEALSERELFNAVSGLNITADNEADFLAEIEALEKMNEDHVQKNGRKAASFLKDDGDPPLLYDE
# Chain of CAMK2A (Q9UQM7 whole entry): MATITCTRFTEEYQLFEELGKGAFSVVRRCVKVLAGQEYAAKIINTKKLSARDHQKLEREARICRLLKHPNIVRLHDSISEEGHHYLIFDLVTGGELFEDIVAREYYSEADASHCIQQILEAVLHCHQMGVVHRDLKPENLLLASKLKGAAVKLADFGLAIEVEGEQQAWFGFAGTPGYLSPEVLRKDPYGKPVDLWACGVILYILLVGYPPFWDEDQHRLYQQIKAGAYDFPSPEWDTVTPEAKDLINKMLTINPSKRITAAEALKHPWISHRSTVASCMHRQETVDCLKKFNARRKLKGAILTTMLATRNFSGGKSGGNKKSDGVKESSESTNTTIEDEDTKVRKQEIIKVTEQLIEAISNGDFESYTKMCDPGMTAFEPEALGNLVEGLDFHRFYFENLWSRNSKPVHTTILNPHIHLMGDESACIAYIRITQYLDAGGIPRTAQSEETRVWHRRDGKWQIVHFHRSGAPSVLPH
# Chain of AMPK-alpha2 (P54646 whole entry): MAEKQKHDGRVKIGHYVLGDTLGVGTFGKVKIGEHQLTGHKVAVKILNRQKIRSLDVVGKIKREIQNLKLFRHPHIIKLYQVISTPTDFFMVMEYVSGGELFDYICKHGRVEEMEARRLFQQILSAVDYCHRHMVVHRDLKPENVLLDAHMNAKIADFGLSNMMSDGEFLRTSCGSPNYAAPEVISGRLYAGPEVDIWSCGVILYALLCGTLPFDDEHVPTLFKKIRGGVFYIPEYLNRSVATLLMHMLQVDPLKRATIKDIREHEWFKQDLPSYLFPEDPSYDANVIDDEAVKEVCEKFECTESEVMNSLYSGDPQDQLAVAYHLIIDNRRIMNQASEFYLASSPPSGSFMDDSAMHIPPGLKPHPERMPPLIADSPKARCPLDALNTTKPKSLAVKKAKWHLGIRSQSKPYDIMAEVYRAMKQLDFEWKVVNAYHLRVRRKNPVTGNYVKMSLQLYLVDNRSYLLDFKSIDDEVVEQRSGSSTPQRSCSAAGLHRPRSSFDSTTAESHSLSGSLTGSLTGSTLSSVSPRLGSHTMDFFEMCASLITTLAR
# T2 sequence (Q02750 whole entry, the tested form may be a part): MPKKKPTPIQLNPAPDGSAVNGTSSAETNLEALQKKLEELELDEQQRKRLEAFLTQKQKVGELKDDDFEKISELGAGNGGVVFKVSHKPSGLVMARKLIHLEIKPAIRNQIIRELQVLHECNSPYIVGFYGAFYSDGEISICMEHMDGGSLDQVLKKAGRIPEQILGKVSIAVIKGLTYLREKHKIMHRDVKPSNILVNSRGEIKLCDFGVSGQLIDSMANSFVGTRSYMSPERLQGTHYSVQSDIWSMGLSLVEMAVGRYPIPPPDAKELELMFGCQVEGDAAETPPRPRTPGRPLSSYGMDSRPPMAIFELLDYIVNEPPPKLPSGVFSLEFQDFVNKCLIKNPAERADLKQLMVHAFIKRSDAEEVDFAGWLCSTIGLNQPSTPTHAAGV
# Chain of RSK4 (Kin.Dom.1-N-terminal) (Q9UK32 73-330 limits assumed): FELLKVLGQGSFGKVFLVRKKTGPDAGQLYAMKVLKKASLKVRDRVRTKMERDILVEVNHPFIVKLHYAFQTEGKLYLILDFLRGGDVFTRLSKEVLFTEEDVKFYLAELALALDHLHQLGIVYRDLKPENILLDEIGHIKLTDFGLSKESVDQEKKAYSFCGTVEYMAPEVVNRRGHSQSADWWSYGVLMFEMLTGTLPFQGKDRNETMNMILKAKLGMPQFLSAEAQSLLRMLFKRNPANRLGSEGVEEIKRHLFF
compound,measurement,setting,value
Cc1cc(Oc2cc(NC(=O)C3CC3)ncn2)ccc1NC(=O)Nc1ccc(Cl)c(C(F)(F)F)c1 [CBT-102],remaining activity at 1 µM,[1],89%
same,remaining activity at 1 µM,[2],94%
same,remaining activity at 1 µM,[3],65%
same,remaining activity at 1 µM,[4],29%
same,remaining activity at 1 µM,[5],100%
same,remaining activity at 1 µM,[6],100%
same,remaining activity at 1 µM,[7],100%
same,remaining activity at 1 µM,[8],95%
same,effect on T cell surface marker CD3 (IHC),[9],no significant effect
same,remaining activity at 1 µM,[10],95%
same,remaining activity at 1 µM,[11],18%
same,remaining activity at 1 µM,[12],56%
same,remaining activity at 1 µM,[13],100%
same,remaining activity at 1 µM,[14],3.4%
same,remaining activity at 1 µM,[15],1.4%
same,remaining activity at 1 µM,[16],95%
same,remaining activity at 1 µM,[17],95%
same,remaining activity at 1 µM,[18],100%
same,remaining activity at 1 µM,[19],2.3%
same,remaining activity at 1 µM,[20],99%
same,remaining activity at 1 µM,[21],95%
same,remaining activity at 1 µM,[22],68%
same,remaining activity at 1 µM,[23],3.3%
same,remaining activity at 1 µM,[24],100%
same,remaining activity at 1 µM,[25],12%
same,remaining activity at 1 µM,[26],0%
same,remaining activity at 1 µM,[27],88%
same,remaining activity at 1 µM,[28],100%
same,remaining activity at 1 µM,[29],100%
same,remaining activity at 1 µM,[30],100%
same,remaining activity at 1 µM,[31],100%
same,remaining activity at 1 µM,[32],93%
same,remaining activity at 1 µM,[33],100%
same,remaining activity at 1 µM,[34],83%
same,remaining activity at 1 µM,[35],100%
same,remaining activity at 1 µM,[36],96%
same,remaining activity at 1 µM,[37],67%
same,remaining activity at 1 µM,[38],92%
